Measurements reported in patent US20130281467A1, “NOVEL MICROBICIDES” (SYNGENTA PARTICIPATIONS AG, priority 2010, published 2013).
Values belong to the molecule of their own block, whether it stands above or below them.

How the values were obtained:
[1] = test system: Blumeria graminis f. Sp. tritici (Erysiphe graminis f. sp. tritici); assay: Fungicidal activity against Blumeria graminis f. sp. tritici / wheat / leaf disc preventative (powdery mildew on wheat); format: in vivo; conditions: foliar, wheat leaf segments, inoculated 1 day after application, compared to untreated, read-out: disease control
Procedure: Fungicidal Activity Against Blumeria graminis f. Sp. tritici (Erysiphe graminis f. sp. tritici)/Wheat/Leaf Disc Preventative (Powdery Mildew on Wheat)
Wheat leaf segments cv. Kanzler were placed on agar in a multiwell plate (24-well format) and sprayed with the formulated test compound diluted in water. The leaf disks were inoculated by shaking powdery mildew infected plants above the test plates 1 day after application. The inoculated leaf disks were incubated at 20° C. and 60% rh under a light regime of 24 h darkness followed by 12 h light/12 h darkness in a climate chamber and the activity of a compound was assessed as percent disease control compared to untreated when an appropriate level of disease damage appears on untreated check leaf segments (6-8 days after application).

[2] = test system: Botryotinia fuckeliana (Botrytis cinerea); assay: Fungicidal activity against Botryotinia fuckeliana (Botrytis cinerea) / liquid culture (gray mould); format: cell-based; conditions: 3-4 days after application, read-out: disease control (inhibition of growth, photometrically)
Procedure: Fungicidal Activity Against Botryotinia fuckeliana (Botrytis cinerea)/Liquid Culture (Gray Mould) Conidia of the fungus from cryogenic storage were directly mixed into nutrient broth (Vogels broth). After placing a (DMSO) solution of test compound into a microtiter plate (96-well format), the nutrient broth containing the fungal spores was added. The test plates were incubated at 24° C. and the inhibition of growth was determined photometrically 3-4 days after application.

Gaeumannomyces graminis = assay: Fungicidal activity against Gaeumannomyces graminis / liquid culture (take-all of cereals); format: cell-based; conditions: 4-5 days after application, read-out: disease control (inhibition of growth, photometrically)
Procedure: (§1) Fungicidal Activity Against Gaeumannomyces graminis/Liquid Culture (Take-all of Cereals) Mycelial fragments of the fungus from cryogenic storage were directly mixed into nutrient broth (PDB potato dextrose broth). After placing a (DMSO) solution of test compound into a microtiter plate (96-well format), the nutrient broth containing the fungal spores iss added. The test plates were incubated at 24° C. and the inhibition of growth was determined photometrically 4-5 days after application.

[3] = test system: Glomerella lagenarium (Colletotrichum lagenarium); assay: Fungicidal activity against Glomerella lagenarium (Colletotrichum lagenarium) / liquid culture (anthracnose); format: cell-based; conditions: Colletotrichum orbiculare, 3-4 days after application, read-out: disease control (inhibition of growth, photometrically)
Procedure: as §1, with “Glomerella lagenarium (Colletotrichum lagenarium)/Liquid” for “Gaeumannomyces graminis/Liquid”, “(Anthracnose) Conidia” for “(Take-all of Cereals) Mycelial fragments”, “was” for “iss”, “measured” for “determined”, “3-4” for “4-5”

[4] = test system: Monographella nivalis (Microdochium nivale); assay: Fungicidal activity against Monographella nivalis (Microdochium nivale) / liquid culture (foot rot cereals); format: cell-based; conditions: 4-5 days after application, read-out: disease control (inhibition of growth, photometrically)
Procedure: as §1, with “Monographella nivalis (Microdochium nivale)/Liquid” for “Gaeumannomyces graminis/Liquid”, “(Foot Rot” for “(Take-all of”, “Conidia” for “Mycelial fragments”, “was” for “iss”

[5] = test system: Mycosphaerella arachidis (Cercospora arachidicola); assay: Fungicidal activity against Mycosphaerella arachidis (Cercospora arachidicola) / liquid culture (early leaf spot); format: cell-based; conditions: 4-5 days after application, read-out: disease control (inhibition of growth, photometrically)
Procedure: as §1, with “Mycosphaerella arachidis (Cercospora arachidicola)/Liquid” for “Gaeumannomyces graminis/Liquid”, “(Early Leaf Spot) Conidia” for “(Take-all of Cereals) Mycelial fragments”, “was” for “iss”

[6] = test system: Mycosphaerella graminicola (Septoria tritici); assay: Fungicidal activity against Mycosphaerella graminicola (Septoria tritici) / liquid culture (Septoria blotch); format: cell-based; conditions: Zymoseptoria tritici, 4-5 days after application, read-out: disease control (inhibition of growth, photometrically)
Procedure: as §1, with “Mycosphaerella graminicola (Septoria tritici)/Liquid” for “Gaeumannomyces graminis/Liquid”, “(Septoria Blotch) Conidia” for “(Take-all of Cereals) Mycelial fragments”, “was” for “iss”

[7] = test system: Phaeosphaeria nodorum (Septoria nodorum); assay: Fungicidal activity against Phaeosphaeria nodorum (Septoria nodorum) / wheat / leaf disc preventative (glume blotch); format: in vivo; conditions: Parastagonospora nodorum, foliar, wheat leaf segments, inoculated 2 days after application, compared to untreated, read-out: disease control
Procedure: Fungicidal Activity Against Phaeosphaeria nodorum (Septoria nodorum)/Wheat/Leaf Disc Preventative (Glume Blotch) Wheat leaf segments cv. Kanzler were placed on agar in a multiwell plate (24-well format) and sprayed with the formulated test compound diluted in water. The leaf disks were inoculated with a spore suspension of the fungus 2 days after application. The inoculated test leaf disks were incubated at 20° C. and 75% rh under a light regime of 12 h light/12 h darkness in a climate cabinet and the activity of a compound was assessed as percent disease control compared to untreated when an appropriate level of disease damage appears in untreated check leaf disks (5-7 days after application).

[8] = test system: Puccinia recondita f. sp. tritici; assay: Fungicidal activity against Puccinia recondita f. sp. tritici / wheat / leaf disc preventative (brown rust); format: in vivo; conditions: foliar, wheat leaf segments, inoculated 1 day after application, compared to untreated, read-out: disease control
Procedure: Fungicidal Activity Against Puccinia recondita f. sp. tritici/Wheat/Leaf Disc Preventative (Brown Rust) Wheat leaf segments cv. Kanzler were placed on agar in multiwell plates (24-well format) and sprayed with the formulated test compound diluted in water. The leaf disks were inoculated with a spore suspension of the fungus 1 day after application. The inoculated leaf segments were incubated at 19° C. and 75% rh under a light regime of 12 h light/12 h darkness in a climate cabinet and the activity of a compound was assessed as percent disease control compared to untreated when an appropriate level of disease damage appears in untreated check leaf segments (7-9 days after application).

Pyrenophora teres = assay: Fungicidal activity against Pyrenophora teres / barley / leaf disc preventative (net blotch); format: in vivo; conditions: foliar, barley leaf segments, inoculated 2 days after application, compared to untreated, read-out: disease control
Procedure: Fungicidal Activity Against Pyrenophora teres/Barley/Leaf Disc Preventative (Net Blotch) Barley leaf segments cv. Hasso were placed on agar in a multiwell plate (24-well format) and sprayed with the formulated test compound diluted in water. The leaf segments were inoculated with a spore suspension of the fungus 2 days after application. The inoculated leaf segments were incubated at 20° C. and 65% rh under a light regime of 12 h light/12 h darkness in a climate cabinet and the activity of a compound was assessed as disease control compared to untreated when an appropriate level of disease damage appears in untreated check leaf segments (5-7 days after application).

[9] = test system: Thanatephorus cucumeris (Rhizoctonia solani); assay: Fungicidal activity against Thanatephorus cucumeris (Rhizoctonia solani) / liquid culture (foot rot, damping-off); format: cell-based; conditions: 3-4 days after application, read-out: disease control (inhibition of growth, photometrically)
Procedure: Fungicidal Activity Against Thanatephorus cucumeris (Rhizoctonia solani)/Liquid Culture (Foot Rot, Damping-Off) Mycelia fragments of a newly grown liquid culture of the fungus were directly mixed into nutrient broth (PDB potato dextrose broth). After placing a (DMSO) solution of the test compounds into a microtiter plate (96-well format), the nutrient broth containing the fungal material was added. The test plates were incubated at 24° C. and the inhibition of growth was determined photometrically 3-4 days after application.

Alternaria solani = assay: Fungicidal activity against Alternaria solani / tomato / leaf disc (early blight); format: in vivo; conditions: foliar, tomato leaf disks, inoculated 2 days after application, compared to untreated, read-out: disease control
Procedure: Fungicidal Activity Against Alternaria solani/Tomato/Leaf Disc (Early Blight) Tomato leaf disks cv. Baby were placed on agar in multiwell plates (24-well format) and sprayed with the formulated test compound diluted in water. The leaf disks were inoculated with a spore suspension of the fungus 2 days after application. The inoculated leaf disks were incubated at 23° C./21° C.

- melting point: 115 to 120 °C
SMILES: Clc1ccc(Cc2cccc(-c3ncc4c(n3)CCCC4)n2)cn1 [Compound 1, 2-[6-(6-chloropyridin-3-ylmethyl)-pyridin-2-yl]-5,6,7,8-tetrahydroquinazoline]
- pest or weed control at 200 ppm [1]: ≥ 80%
- inhibition at 200 ppm [2]: ≥ 80%
- inhibition at 200 ppm (Gaeumannomyces graminis): ≥ 80%
- inhibition at 200 ppm [3]: ≥ 80%
- inhibition at 200 ppm [4]: ≥ 80%
- inhibition at 200 ppm [5]: ≥ 80%
- inhibition at 200 ppm [6]: ≥ 80%
- pest or weed control at 200 ppm [7]: ≥ 80%
- pest or weed control at 200 ppm [8]: ≥ 80%
- pest or weed control at 200 ppm (Pyrenophora teres): ≥ 80%
- inhibition at 200 ppm [9]: ≥ 80%

- melting point: 244 to 245 °C
SMILES: c1ccc(Cc2cccc(-c3ncc4c(n3)CCOC4)n2)cc1 [Compound 2]
- pest or weed control at 200 ppm [1]: ≥ 80%
- inhibition at 200 ppm [2]: ≥ 80%
- inhibition at 200 ppm (Gaeumannomyces graminis): ≥ 80%
- inhibition at 200 ppm [3]: ≥ 80%
- inhibition at 200 ppm [5]: ≥ 80%
- inhibition at 200 ppm [6]: ≥ 80%
- pest or weed control at 200 ppm [7]: ≥ 80%
- pest or weed control at 200 ppm [8]: ≥ 80%
- pest or weed control at 200 ppm (Pyrenophora teres): ≥ 80%
- inhibition at 200 ppm [9]: ≥ 80%

- melting point: 148 to 149 °C
SMILES: Clc1cccc(Cc2cccc(-c3ncc4c(n3)CCOC4)n2)c1 [Compound 4]
- pest or weed control at 200 ppm [1]: ≥ 80%
- inhibition at 200 ppm [2]: ≥ 80%
- inhibition at 200 ppm (Gaeumannomyces graminis): ≥ 80%
- inhibition at 200 ppm [3]: ≥ 80%
- inhibition at 200 ppm [4]: ≥ 80%
- inhibition at 200 ppm [5]: ≥ 80%
- inhibition at 200 ppm [6]: ≥ 80%
- pest or weed control at 200 ppm [7]: ≥ 80%
- pest or weed control at 200 ppm [8]: ≥ 80%
- pest or weed control at 200 ppm (Pyrenophora teres): ≥ 80%
- inhibition at 200 ppm [9]: ≥ 80%

- melting point: 132 to 133 °C
SMILES: Cc1ccccc1Cc1cccc(-c2ncc3c(n2)CCOC3)n1 [Compound 6, 2-[6-(2-methylbenzyl)-pyridin-2-yl]-7,8-dihydro-5H-pyrano[4,3-d]pyrimidine]
- pest or weed control at 200 ppm (Alternaria solani): ≥ 80%
- pest or weed control at 200 ppm [1]: ≥ 80%
- inhibition at 200 ppm [2]: ≥ 80%
- inhibition at 200 ppm (Gaeumannomyces graminis): ≥ 80%
- inhibition at 200 ppm [3]: ≥ 80%
- inhibition at 200 ppm [4]: ≥ 80%
- inhibition at 200 ppm [5]: ≥ 80%
- inhibition at 200 ppm [6]: ≥ 80%
- pest or weed control at 200 ppm [7]: ≥ 80%
- pest or weed control at 200 ppm [8]: ≥ 80%
- pest or weed control at 200 ppm (Pyrenophora teres): ≥ 80%

- melting point: 226 to 228 °C
SMILES: CC1(C)CCc2cnc(-c3cccc(Cc4ccccc4)n3)nc2C1 [Compound 11]
- pest or weed control at 200 ppm [1]: ≥ 80%
- inhibition at 200 ppm [2]: ≥ 80%
- inhibition at 200 ppm (Gaeumannomyces graminis): ≥ 80%
- inhibition at 200 ppm [3]: ≥ 80%
- inhibition at 200 ppm [4]: ≥ 80%
- inhibition at 200 ppm [5]: ≥ 80%
- inhibition at 200 ppm [6]: ≥ 80%
- pest or weed control at 200 ppm [7]: ≥ 80%
- pest or weed control at 200 ppm [8]: ≥ 80%
- pest or weed control at 200 ppm (Pyrenophora teres): ≥ 80%
- inhibition at 200 ppm [9]: ≥ 80%

- melting point: 222 to 223 °C
SMILES: CC1(C)CCc2cnc(-c3cccc(Cc4cccc(C#N)c4)n3)nc2C1 [Compound 17]
- inhibition at 200 ppm [2]: ≥ 80%
- inhibition at 200 ppm (Gaeumannomyces graminis): ≥ 80%
- inhibition at 200 ppm [3]: ≥ 80%
- inhibition at 200 ppm [4]: ≥ 80%
- inhibition at 200 ppm [5]: ≥ 80%
- inhibition at 200 ppm [6]: ≥ 80%
- pest or weed control at 200 ppm [7]: ≥ 80%
- pest or weed control at 200 ppm (Pyrenophora teres): ≥ 80%
- inhibition at 200 ppm [9]: ≥ 80%

- melting point: 175 to 177 °C
SMILES: CO/N=C1\CCc2nc(-c3cccc(Cc4ccccc4)n3)ncc2C1 [Compound 18]
- pest or weed control at 200 ppm [1]: ≥ 80%
- inhibition at 200 ppm [2]: ≥ 80%
- inhibition at 200 ppm (Gaeumannomyces graminis): ≥ 80%
- inhibition at 200 ppm [3]: ≥ 80%
- inhibition at 200 ppm [5]: ≥ 80%
- inhibition at 200 ppm [6]: ≥ 80%
- pest or weed control at 200 ppm [7]: ≥ 80%
- pest or weed control at 200 ppm [8]: ≥ 80%
- pest or weed control at 200 ppm (Pyrenophora teres): ≥ 80%
- inhibition at 200 ppm [9]: ≥ 80%

SMILES: CO[C@@H]1CCc2nc(-c3cccc(Cc4ccccc4)n3)ncc2C1 [Compound 25]
- pest or weed control at 200 ppm (Alternaria solani): ≥ 80%
- pest or weed control at 200 ppm [1]: ≥ 80%
- inhibition at 200 ppm [2]: ≥ 80%
- inhibition at 200 ppm [3]: ≥ 80%
- inhibition at 200 ppm [4]: ≥ 80%
- inhibition at 200 ppm [5]: ≥ 80%
- inhibition at 200 ppm [6]: ≥ 80%
- pest or weed control at 200 ppm [7]: ≥ 80%
- pest or weed control at 200 ppm [8]: ≥ 80%
- pest or weed control at 200 ppm (Pyrenophora teres): ≥ 80%

SMILES: Clc1ccccc1Cc1cccc(-c2ncc3c(n2)CCCCC3)n1 [Compound 33]
- pest or weed control at 200 ppm (Alternaria solani): ≥ 80%
- pest or weed control at 200 ppm [1]: ≥ 80%
- inhibition at 200 ppm [2]: ≥ 80%
- inhibition at 200 ppm (Gaeumannomyces graminis): ≥ 80%
- inhibition at 200 ppm [3]: ≥ 80%
- inhibition at 200 ppm [4]: ≥ 80%
- inhibition at 200 ppm [5]: ≥ 80%
- inhibition at 200 ppm [6]: ≥ 80%
- pest or weed control at 200 ppm [7]: ≥ 80%
- pest or weed control at 200 ppm [8]: ≥ 80%
- pest or weed control at 200 ppm (Pyrenophora teres): ≥ 80%
- inhibition at 200 ppm [9]: ≥ 80%

- melting point: 136 to 138 °C
SMILES: CC(c1ccccc1)c1cccc(-c2ncc3c(n2)CC(C)(C)CC3)n1 (stereo not shown) [Compound 45]
- inhibition at 200 ppm [2]: ≥ 80%
- inhibition at 200 ppm (Gaeumannomyces graminis): ≥ 80%
- inhibition at 200 ppm [3]: ≥ 80%
- inhibition at 200 ppm [4]: ≥ 80%
- inhibition at 200 ppm [5]: ≥ 80%
- inhibition at 200 ppm [6]: ≥ 80%
- pest or weed control at 200 ppm [7]: ≥ 80%
- pest or weed control at 200 ppm (Pyrenophora teres): ≥ 80%
- inhibition at 200 ppm [9]: ≥ 80%
